# Test results published in the supplement of paper PMC10733146.
# Legend:
# Assay in all cases: viability relative to DMSO control (fraction); higher = less drug effect (more viable cells)
# Details in all cases: 48 h
# [1] = system: primary AML patient cells (S017)
# Outline: (§1)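 Viability was quantified by CellTiter-Glo luminescence and related to the median of 16 inner DMSO wells. Before that, primary mononuclear tumour cells, fresh or cryopreserved and Ficoll-isolated from blood or bone marrow or prepared from processed lymph node, were plated at 4 × 10^4 cells per well in 384-well plates containing pre-plated compounds at five concentrations, one well each. Plates were incubated in RPMI-1640 with penicillin/streptomycin, L-glutamine and human serum at 37 °C and 5% CO2 for 48 h.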
# [2] = system: primary AML patient cells (S012)
# Outline: as §1
# [3] = system: primary AML patient cells (S085)
# Outline: as §1
# [4] = system: primary AML patient cells (S021)
# Outline: as §1
# [5] = system: primary MCL patient cells (S053)
# Outline: as §1
# [6] = system: primary FL patient cells (S022)
# Outline: as §1
# [7] = system: primary AML patient cells (S091)
# Outline: as §1
# [8] = system: primary T-PLL patient cells (S008)
# Outline: as §1
# [9] = system: primary MCL patient cells (S068)
# Outline: as §1
# [10] = system: primary AML patient cells (S002)
# Outline: as §1
# [11] = system: primary BL patient cells (S005)
# Outline: as §1
# [12] = system: primary AML patient cells (S037)
# Outline: as §1
# [13] = system: primary B-PLL patient cells (S016)
# Outline: as §1
# [14] = system: primary AML patient cells (S009)
# Outline: as §1
# [15] = system: primary FL patient cells (S087)
# Outline: as §1
# [16] = system: primary AML patient cells (S081)
# Outline: as §1
# [17] = system: primary AML patient cells (S025)
# Outline: as §1
# [18] = system: primary AML patient cells (S011)
# Outline: as §1
# [19] = system: primary AML patient cells (S019)
# Outline: as §1
# [20] = system: primary MCL patient cells (S041)
# Outline: as §1
smiles,measurement,setting,value
Nc1ncn([C@H]2C[C@H](O)[C@@H](CO)O2)c(=O)n1 [Decitabine (Dacogen)],viability,[1]; 0.024 µM,1.09
same,viability,[1]; 0.12 µM,0.954
same,viability,[1]; 0.6 µM,1.16
same,viability,[1]; 3 µM,0.918
same,viability,[1]; 15 µM,1.08
same,viability,[2]; 0.024 µM,1
same,viability,[2]; 0.12 µM,0.92
same,viability,[2]; 0.6 µM,0.943
same,viability,[2]; 3 µM,0.945
same,viability,[2]; 15 µM,0.929
same,viability,[3]; 0.024 µM,0.939
same,viability,[3]; 0.12 µM,0.904
same,viability,[3]; 0.6 µM,0.909
same,viability,[3]; 3 µM,0.807
same,viability,[3]; 15 µM,0.687
same,viability,[4]; 0.024 µM,1.17
same,viability,[4]; 0.12 µM,0.973
same,viability,[4]; 0.6 µM,1.03
same,viability,[4]; 3 µM,0.942
same,viability,[4]; 15 µM,0.818
same,viability,[5]; 0.024 µM,0.969
same,viability,[5]; 0.12 µM,0.824
same,viability,[5]; 0.6 µM,0.878
same,viability,[5]; 3 µM,0.807
same,viability,[5]; 15 µM,0.735
same,viability,[6]; 0.024 µM,1.12
same,viability,[6]; 0.12 µM,0.952
same,viability,[6]; 0.6 µM,1.01
same,viability,[6]; 3 µM,0.937
same,viability,[6]; 15 µM,0.962
same,viability,[7]; 0.024 µM,0.958
same,viability,[7]; 0.12 µM,1.09
same,viability,[7]; 0.6 µM,0.83
same,viability,[7]; 3 µM,0.913
same,viability,[7]; 15 µM,0.617
same,viability,[8]; 0.024 µM,0.968
same,viability,[8]; 0.12 µM,1.02
same,viability,[8]; 0.6 µM,0.953
same,viability,[8]; 3 µM,1.08
same,viability,[8]; 15 µM,1.01
same,viability,[9]; 0.024 µM,0.948
same,viability,[9]; 0.12 µM,0.974
same,viability,[9]; 0.6 µM,0.926
same,viability,[9]; 3 µM,0.938
same,viability,[9]; 15 µM,0.775
same,viability,[10]; 0.024 µM,1.03
same,viability,[10]; 0.12 µM,1.03
same,viability,[10]; 0.6 µM,0.952
same,viability,[10]; 3 µM,0.892
same,viability,[10]; 15 µM,0.903
same,viability,[11]; 0.024 µM,0.833
same,viability,[11]; 0.12 µM,1.27
same,viability,[11]; 0.6 µM,0.828
same,viability,[11]; 3 µM,1.27
same,viability,[11]; 15 µM,0.8
same,viability,[12]; 0.024 µM,1.01
same,viability,[12]; 0.12 µM,0.925
same,viability,[12]; 0.6 µM,0.981
same,viability,[12]; 3 µM,0.91
same,viability,[12]; 15 µM,0.955
same,viability,[13]; 0.024 µM,0.927
same,viability,[13]; 0.12 µM,0.83
same,viability,[13]; 0.6 µM,0.972
same,viability,[13]; 3 µM,0.874
same,viability,[13]; 15 µM,0.88
same,viability,[14]; 0.024 µM,0.915
same,viability,[14]; 0.12 µM,0.951
same,viability,[14]; 0.6 µM,0.854
same,viability,[14]; 3 µM,0.859
same,viability,[14]; 15 µM,0.702
same,viability,[15]; 0.024 µM,0.969
same,viability,[15]; 0.12 µM,0.89
same,viability,[15]; 0.6 µM,0.981
same,viability,[15]; 3 µM,0.864
same,viability,[15]; 15 µM,0.966
same,viability,[16]; 0.024 µM,1.05
same,viability,[16]; 0.12 µM,0.898
same,viability,[16]; 0.6 µM,1.05
same,viability,[16]; 3 µM,0.912
same,viability,[16]; 15 µM,0.931
same,viability,[17]; 0.024 µM,0.968
same,viability,[17]; 0.12 µM,0.953
same,viability,[17]; 0.6 µM,0.912
same,viability,[17]; 3 µM,0.694
same,viability,[17]; 15 µM,0.535
same,viability,[18]; 0.024 µM,0.963
same,viability,[18]; 0.12 µM,0.887
same,viability,[18]; 0.6 µM,1.1
same,viability,[18]; 3 µM,0.887
same,viability,[18]; 15 µM,0.956
same,viability,[19]; 0.024 µM,1.11
same,viability,[19]; 0.12 µM,0.753
same,viability,[19]; 0.6 µM,1.04
same,viability,[19]; 3 µM,0.684
same,viability,[19]; 15 µM,0.918
same,viability,[20]; 0.024 µM,1.06
same,viability,[20]; 0.12 µM,0.969
same,viability,[20]; 0.6 µM,1.06
same,viability,[20]; 3 µM,0.961
same,viability,[20]; 15 µM,0.984
